According to US6403644B1, “Method of treating disease with sulfonylamino acid derivatives” (Ono Pharmaceutical Co., Ltd., priority 1995, dated 2002):
pIC50: −log10 of the molar value.

Target: T1, gelatinase A (Homo sapiens, UniProt P08253)
T1 construct: endogenous in cells; host or cells: human normal skin dermal fibroblasts (HNDF)
T1 sequence (P08253 110-660): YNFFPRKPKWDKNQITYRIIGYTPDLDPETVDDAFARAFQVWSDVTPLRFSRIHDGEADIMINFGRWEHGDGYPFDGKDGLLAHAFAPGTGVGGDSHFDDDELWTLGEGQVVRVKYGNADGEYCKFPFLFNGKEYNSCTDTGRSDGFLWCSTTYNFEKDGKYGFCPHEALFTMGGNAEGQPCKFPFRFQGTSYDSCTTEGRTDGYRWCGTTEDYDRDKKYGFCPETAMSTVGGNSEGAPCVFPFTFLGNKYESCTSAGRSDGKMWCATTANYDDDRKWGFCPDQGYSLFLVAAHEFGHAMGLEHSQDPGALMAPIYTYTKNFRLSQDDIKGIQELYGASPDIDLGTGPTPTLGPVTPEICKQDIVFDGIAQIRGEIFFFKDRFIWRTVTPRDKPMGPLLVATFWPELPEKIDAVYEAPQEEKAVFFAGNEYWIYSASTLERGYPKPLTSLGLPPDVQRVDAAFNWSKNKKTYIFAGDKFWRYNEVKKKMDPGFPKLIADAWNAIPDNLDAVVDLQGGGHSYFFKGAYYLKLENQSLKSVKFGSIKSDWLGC
Experiment: Inhibitory activity against gelatinase A (FITC-labeled gelatin degradation)
Assay type: biochemical
Details: progelatinase A from human normal skin dermal fibroblasts (HNDF), APMA-activated, 2 hours at 37° C., read-out: IC50 for inhibition of gelatinase A activity
Procedure: The potency of inhibitory activity against each matrix metalloproteinases is confirmed as below. The IC50 value for inhibition of gelatinase A activity is determined as follows.
(1) Inhibitory activity against gelatinase A
The progelatinase A (7 μl; in assay buffer (90 μl)) was purified from human normal skin dermal fibroblasts (HNDF). It was activated by the addition of 10 mM of p-aminophenylmercuric acetate (APMA) (10 μl) for 1 hour at 37° C.
The solution of activated gelatinase A (7 μl/tube, 98 μl) was mixed with various concentrations of the test compound or dimethylsulfoxide (2 μl) and gelatin (100 μl) labeled with 0.05% fluorescein isothiocyanate (FITC) and incubated for 2 hours at 37° C. The reaction was terminated by the addition of 0.1M Tris-HCl (pH9.5) containing 94.7% ethanol (750 μl). The mixture was stirred and then allowed to stand for 30 minutes at 0° C. The mixture was centrifuged for 30 minutes at 900×g. The IC50 was determined by measuring the fluorescent intensity in supernatant (Ex=495 nm, and Em=520 nm).

Row | Compound | pIC50
1 | O=C(O)CNS(=O)(=O)c1ccc(OC(=O)c2ccccc2)cc1 [compound 6] | 6.38
2 | Cc1ccc(C(=O)Nc2ccc(S(=O)(=O)N[C@H](Cc3c[nH]c4ccccc34)C(=O)O)cc2)cc1 [Example 3(13), N-[[4-(p-Toluoylamino)phenyl]sulfonyl]-D-tryptophan] | 8.57
3 | CCCCCc1ccc(C(=O)Nc2ccc(S(=O)(=O)N[C@H](Cc3ccccc3)C(=O)O)cc2)cc1 [Example 2(63), N-[[4-(4-Pentylbenzoylamino)phenyl]sulfonyl]-D-phenylalanine] | 8.64
4 | Cc1ccc(C(=O)Nc2ccc(S(=O)(=O)NCC(=O)O)cc2)cc1 [compound 2] | 6.96
5 | N=C(N)c1ccc(OC(=O)c2ccc(S(=O)(=O)N[C@@H](Cc3ccccc3)C(=O)O)cc2)cc1 [Example 10(1), N-[[4-(4-Amidinophenoxycarbonyl)phenyl]sulfonyl]-L-phenylalanine methansulfonate] | 6.15
6 | CCCCCc1ccc(C(=O)Nc2ccc(S(=O)(=O)NCC(=O)O)cc2)cc1 [Example 2(35), N-[[4-(4-Pentylbenzoylamino)phenyl]sulfonyl]glycine] | 7.89
7 | O=C(O)CNS(=O)(=O)c1ccc(NC(=O)c2ccc(F)cc2)cc1 [Example 2(11), N-[[4-(4-Fluorobenzoylamino)phenyl]sulfonyl]glycine] | 6.10
8 | O=C(O)CNS(=O)(=O)c1ccc(NC(=O)c2ccccc2)cc1 [Example 2(10), N-[[4-(Benzoylamino)phenyl]sulfonyl]glycine] | 6.18
